# Experimental data taken from patent US10945980B2, “Treatment for myopia” (The University of Newcastle, priority 2016, dated 2021).
# System: normal eye growth in guinea pigs
# Experiment: Eye drops on normal growth and emmetropization (no lens wear)
# Assay type: in vivo, guinea pig (Cavia porcellus)
# Conditions: eye drops twice daily 9-16 days of age
# Procedure: Two experimental protocols were employed (see Table 4). In Experiment 1, young guinea pigs wore a −6D lens on one eye from 5-12 days of age. They were randomly divided within each litter into two groups of 10 animals each, and received either a drop of L-Arginine (100 mM, 1.7%) in Saline (pH 7.4) or Saline alone (0.9%, pH 7.4) twice per day in the eye wearing the lens (Table 4). Drops were administered at the beginning of their light cycle and again approximately 6 hrs later in the middle of their day cycle. Lenses were removed during the drop administration which occurred under dim red light or in darkness. A single large drop was bathed on the cornea for 3 min in the lens-wearing eye in hand held animals. A clean lens was then reintroduced onto the eye. In Experiment 2, 14 guinea pigs were given eye drops in the same manner as in Experiment 1, but in both eyes and without any lens-wear, to determine the effect of the eye drops on normal eye growth. Animals received one drop of either 1.7% L-arginine (n=7) or atropine (Minims Atropine Sulphate 1%, Bausch & Lomb, preservative free, n=7) in one eye and saline (0.9%) in the other eye twice per day from 9-16 days of age.
# In Experiment 1, at the end of the lens-wearing period, at 12 days of age just before the morning lights came on, both eyes were cyclopleged (1% Cyclopentolate—to paralyse the focussing muscles of the eye to a resting state) and 1.25 hours later, refractive error (RE) was measured. Animals were then anaesthetised with gaseous anaesthetic (1.5% isoflurane in oxygen) and eye length measures were taken in both eyes with high frequency ultrasound as described in Example 1. Biometry measures were also taken in the same manner before the lens wear period at 5 days of age. [No refractive measures were done at 5 days of age as cycloplegia could have interfered with the drug or lens response]. In Experiment 2, refractive error and eye length using ultrasound were measured in the same manner at 17 days of age, 24 hours after the previous drop was administered.
# After cycloplegia was induced, refractive error was measured in each eye using an Autorefractor (Nidek AR-20, Japan). The spherical equivalent was calculated as the average of the sphere plus half the cylinder as is normal in clinical practice. All reported refractive errors are the spherical equivalent. Next, ocular length was measured using high frequency ultrasound (20 MHz) as previously described (McFadden et al, 2004). At least 20 traces were recorded for each eye and distances were averaged for at least 10 of these recordings. Peaks from the recordings were selected for the back of the cornea, the crystalline lens, and the vitreous chamber, and the layers at the back of the eye: the retina, choroid, and sclera. Ocular length was defined as the summed measurement from the front of the cornea to the back of the sclera.
# Differences between the two eyes were analysed by a 2-tailed T-tests. The mean of calculated differences between the two eyes is referred to as relative myopia or relative ocular length and the difference in the change in ocular length in the treated compared to the untreated eye as relative growth.
compound,measurement,setting,value
N=C(N)NCCC[C@H](N)C(=O)O [L-arginine],ocular length on average,"measured at 17 days, p=0.22 between groups",8.124 mm
same,"mean refractive error, both eyes averaged","measured at 17 days, p=0.32 between groups",+4.43
same,effect on refractive error (drug eye vs saline eye),"no lens, 1.7% LA (p=0.69) or 1% Atropine (p=0.40)",did not affect the refractive error of the eye
same,difference between the two eyes in ocular length (drug eye vs saline control eye),"LA p=0.39, ATR p=0.42",−33 μm
